1 compound from article PMC3425516 (PLoS ONE, 2012) can be followed below.

The nature of data set [1]: Body weight and adverse effects in xenograft study. Format: in vivo, nude mice. The following applies: HCT116 xenograft mice, oral daily treatment. Here is the method: (A) Tumors were measured regularly and growth delay was calculated for treatment groups relative to control tumors (TGD). (B) Kaplan-Meier survival analysis was based on the tumor growth endpoint. (C) Inhibition of tumor growth curves represented a mean±SEM and percentage change in mean tumor volume (percent TGI). (D) Body weights were measured daily during the first week and then 2 times per week. The body weight ratio was calculated relative to the baseline measurement.
(§1) Once a tumor was palpable with the size of approximately 55 mm^3, mice were randomized into vehicle control and treatment groups (8 mice per group). Control mice received the vehicle (0.5% carboxymethyl cellulose +0.1% Tween 80). Tumors in all 3 groups were allowed to reach an endpoint volume of 1,200 mm^3.

For data set [2], the system named is HCT116 cells. As to the kind of experiment: Flow cytometry cell cycle / sub-G1 analysis. Format: cell-based, human. Here is the method: After centrifugation, cells were incubated in 0.1 mol/L phosphate-citric acid buffer [0.2 mol/L NaHPO4, 0.1 mol/L citric acid (pH 7.8)] for 20 min at room temperature. Then, the cells were centrifuged and resuspended with 0.5 mL PI solution containing Triton X-100 (0.1%, v/v), RNase (100 µg/mL), and PI (80 µg/mL). DNA content was analyzed with the FACScan and CellQuest software (Becton Dickinson).
(In flow cytometry, cells or beads pass a laser one at a time.)

Data set [3] deals with HCT116 cells. The experiment in a line: Sulforhodamine B cell growth assay. Format: cell-based. The following applies: Homo sapiens, HCT-116, 48 h. Here is the method:
HCT116, MDAMB231 and NCI-ADR cells were seeded in 96-well plates in medium with 5% fetal bovine serum overnight. Cells were fixed with 10% trichloroacetic representing cell population at the time of drug treatment (T 0). […] Excess Sulforhodamine B was washed away by 1% acetic acid and dye-containing cells were lysed with 10 mmol/L Trizma base. […] By measuring time zero (T 0), control growth (C), and cell growth in the presence of the drug (Tx), the percentage growth was calculated. Percentage growth inhibition was calculated as 100-[(Tx–T 0)/(C-T 0)]×100.

The test system of data set [4] is HCT116 xenograft tumors. The experiment in a line: Western blot of HCT116 xenograft tumor tissues. Format: in vivo, nude mice. The following applies: 200 mg/kg oral daily for 7 days. Here is the method: For total lysate, cells were lysed with the 120 µL ice-cold lysis buffer [10 mmol/L Tris-HCl (pH 7.4), 150 mmol/L NaCl, 1 mmol/L EGTA, 1 mmol/L phenylmethylsulfonyl fluoride, 10 µg/mL aprotinin, 10 µg/mL leupeptin, 1 mM sodium orthovandate, 1 mM NaF, and 1% Triton X-100]. Cell lysates were centrifuged at 13,000 rpm for 30 min. […] After 1 h incubation at room temperature in PBS/5% nonfat milk, the membrane was washed with PBS/0.1% and incubated with the indicated antibodies at 4°C overnight. After washings with PBS/0.1% Tween 20, the corresponding secondary antibodies were applied to the membranes for 1 h at room temperature. The membranes were then washed with PBS/0.1% Tween 20 and the detection of signal was done with an enhanced chemiluminescence detection kit (Amersham, Buckinghamshire, UK).
as §1

The test system of data set [5] is HCT116 cells. The experiment in a line: Western blot histone H3 and α-tubulin acetylation. Format: cell-based, human. The following applies: 24 h. The method, then: For total lysate, cells were lysed with the 120 µL ice-cold lysis buffer [10 mmol/L Tris-HCl (pH 7.4), 150 mmol/L NaCl, 1 mmol/L EGTA, 1 mmol/L phenylmethylsulfonyl fluoride, 10 µg/mL aprotinin, 10 µg/mL leupeptin, 1 mM sodium orthovandate, 1 mM NaF, and 1% Triton X-100]. Cell lysates were centrifuged at 13,000 rpm for 30 min. For Western blot analysis, the amount of protein (40 µg) was separated by electrophoresis in a 10% or 15% polyacrylamide gel and transferred to a polyvinylidene difluoride (PVDF) membrane. After 1 h incubation at room temperature in PBS/5% nonfat milk, the membrane was washed with PBS/0.1% and incubated with the indicated antibodies at 4°C overnight. After washings with PBS/0.1% Tween 20, the corresponding secondary antibodies were applied to the membranes for 1 h at room temperature. The membranes were then washed with PBS/0.1% Tween 20 and the detection of signal was done with an enhanced chemiluminescence detection kit (Amersham, Buckinghamshire, UK).
(In general: A western blot detects proteins with antibodies after separation by electrophoresis.)

Data set [6] has as its system human HCT116 colorectal cancer xenograft. The experiment in a line: HCT116 xenograft, tumor growth delay to 1,200 mm^3 endpoint. Format: in vivo, nude mice. The method, then: The human HCT116 colorectal adenocarcinoma cells used for implantation were harvested during log phase growth and resuspended in phosphate-buffered saline at 5×10^7 cells/mL. Each mouse was injected s.c. in the right flank with 1.0×10^7 cells (0.2 mL cell suspension). Tumors were monitored twice weekly and then daily as their volumes approached 1,200 mm^3. Tumor size, in mm^3, was calculated from: where w = width and l = length in mm of the tumor. Tumor volume = (w^2×l)/2.
The logrank test was used to determine the statistical significance of the difference between the TTE values of two groups, except any NTR deaths. […] The two-tailed statistical analyses were conducted at P = 0.05. Kaplan-Meier plots show the percentage of animals remaining in the study versus time. The Kaplan-Meier plots use the same data set as the logrank test.
as §1

Several values for one entry are separate records, joined by “and”; a condition that tells them apart may be missing. Identical values can stand only once.

For orientation: GI50 means the concentration that inhibits growth by half. High values mean less potent growth inhibition, low ones more potent growth inhibition. `O=C(CCCCCCC(=O)Nc1ccccc1)NO` [SAHA, suberoylanilide hydroxamic acid, reference compound]: the “body weight and other adverse effects” value in data set [1] is recorded as “No significant body weight difference or other adverse effects”. Further, the “sub-G1 population (flow cytometry)” value in data set [2] is “weaker effect and delayed cytotoxicity”. For the same compound, in data set [3], the GI50 came out at 820 ± 70 nM. In data set [4], the “expression of caspase 3, PARP, acetyl-histone H3 and acetyl-tubulin in xenograft tumors” value is “acetyl-µ-tubulin were found more profoundly”. Also, the “α-tubulin acetylation (western blot)” value in data set [5] is given as “exhibited more potent α-tubulin acetylation than MPT0E028”. Moreover, the “Median TTE” value in data set [6] (200 mg/kg po qd to endpoint 1200 mm^3) is 27.0 days. In addition, the “No. of CR (complete regression)” value in data set [6] (200 mg/kg po qd, 8 mice per group) is 0. Also, the “%TGD (tumor growth delay)” value in data set [6] (200 mg/kg po qd, [(T-C)/C]×100) worked out at 63%. Besides, the T-C in data set [6] (200 mg/kg po qd, median TTE treated versus control) is 10.0 days and 10 days.
